# Columns and labels:
# Type in all cases: cell-based
# nerve cell strain PC12 = assay: PC12 culture with immobilized EGF and dissolved EGF/NGF, hematoxilin-eosin staining (Example 6); conditions: PC12, 48 hours
# Protocol: An epidermal cell growth factor (EGF) and a nerve cell growth factor (NGF) were employed as the biologically active substances. A culture plate of polystyrene 96-well cell culture plate was prepared by a process similar to that in Example 5, providing areas (wells) where EGF was immobilized with stepwise concentrations, and control areas (wells) of no immobilization. Separately, a stretchable polyolefin sheet was coated with hydroxypropyl cellulose by using a bar coater and heated for 10 minutes at 60° C. to form a holding layer. Then EGF and NGF were provided on the sheet by using a Canon ink jet printer PIXUS950i to obtain a transfer sheet on which areas carrying EGF and NGF singly or in combination. Screening was conducted with these cell culture plate and transfer sheet.
# The transfer sheet was placed on the cell culture plate sterilized in advance with a sterilizing lamp and filled with a culture liquid, then the areas carrying biological substance(s) of the sheet were brought into contact with the culture liquid in the wells by pushing the opposite surface of the sheet with a pointed article, and the contact was maintained for 15 minutes under light shaking to dissolve the biologically active substance in the culture liquid. […]
# [1] = tested on: mouse skeletal muscle cell strain C2C12; assay: C2C12 culture with transfer sheet carrying b-FGF, IGF-I and BMP-2, microscope observation (Example 1); conditions: C2C12, 96 hours culture
# Protocol: Basic fibroblast cell growth factor (b-FGF), insulin-like growth factor (IGF-I) and bone morphogenetic protein (BMP-2) were used as the biologically active substance. b-FGF was dissolved in a physiological saline solution, IGF-I in 10 mM acetic acid, and BMP-2 in 4 mM hydrochloric acid to prepare solutions each containing the biologically active substance at a concentration of 20 μg/ml and 5% glycerin. Ink cartridges were washed with 70% ethanol, to which the respective solutions prepared above were filled.
# Then, on a base of a polyolefin sheet (NOVIX-II® manufactured by Asahi Techno Glass), sterilized in advance with a sterilizing lamp, the biologically active substances were discharged by using an ink jet printer (Ink jet printer F930, Canon). […]
# The cells after the culture were treated with 10% formalin for 15 minutes and then with methanol for 15 minutes, and finally with a 1000-fold dilution of fluorescent dye (TOTO-3 manufactured by Molecular Probe) for 30 minutes for fluorescent staining of DNA. […] Also the cells were subjected to freeze-fracture and the creatinkinase (KP) and alkaliphosphatase (ALP) activities were measured.
# [2] = tested on: mouse skeletal muscle cell strain C2C12; assay: C2C12 culture with sequential transfer sheets A and B, CK and ALP activities (Example 2); conditions: C2C12, areas containing IGF-I only
# Text: As the biologically active substances, fibroblast cell growth factor-2 (FGF-2), insulin-like growth factor-I (IGF-I), bone morphogenetic protein-2 (BMP-2) and transforming growth factor-β (TGF-β) were employed.
# A DMEM culture liquid containing 2% FBS was put into wells of two 96-well transparent microplates 1 and 2. […] In this manner, the sheet A was used to provide FGF-2 and IGF-I to the microplate 1, and the sheet B was used to provide BMP-2 and TGF-β to the microplate 2. Then, in each well of each microplate, cells of mouse skeletal muscle cell strain C2C12 were cultured for 48 hours in humidified air supplied with 5% CO2. 48 hours after the start of the culture, the culture liquid was removed from each cell by suction. After fresh 2% FBS/DMEM was added to each well, a transfer sheet B was applied to the microplate 1 to supply BMP-2 and TGF-β, while a transfer sheet B was applied to the microplate 2 to supply FGF-2 and IGF-I, and the cell culture was conducted for further 48 hours.
# [3] = tested on: mouse skeletal muscle cell strain C2C12; assay: C2C12 culture on plate with immobilized b-FGF and IGF-I and BMP-2 transfer sheet, optical microscope (Example 5); conditions: C2C12, 96 hours
# Protocol: The following method was employed for acting biologically active substances in combination on cells. As the biologically active substances, there were employed basic fibroblast cell growth factor (b-FGF), insulin-like growth factor (IGF-I) and bone morphogenetic protein (BMP-2).
# First, bFGF and IGF-I were immobilized onto a polystyrene 96-well cell culture plate in the following manner.
# On the cell culture plate coated with poly-L-lysine, a solution (1.5 mg/ml) of active dextran activated with tresyl chloride was added to bind the activated dextran to the plate. Then carbonate buffer solutions containing b-FGF and IGF-I respectively were prepared, applied to the microplate with various amounts. The microplate was left to stand for 12 hours at 4° C. to prepare a cell culture plate including areas where b-FGF and IGF-I were immobilized either singly or in combination with different concentrations, as well as control areas without immobilization.
# A polystyrene sheet having projections corresponding the wells of the microplate was provided and sterilized. […]
# Then the cells were treated with 10% formalin for 15 minutes and then with methanol for 15 minutes, and reacted with a fluorescent dye for 30 minutes for fluorescent staining of DNA. […] Thus the complex effects of three factors, namely immobilized bFGF, soluble IGF-I and BMP-2, to the cells were analyzed.
# [4] = tested on: mouse skeletal muscle cell strain C2C12; assay: C2C12 culture with BMP-2, sustained-release IGF-I and timed FGF-2 addition, ALP staining (Example 3)
# Protocol: On the other hand, the 20 μg/ml solution of the insulin-like growth factor (IGF-I) contained 5% glycerin and 3% styrene-acrylic resin monoethanolamine salt (average molecular weight 8,000, acid value 250) for controlled release of IGF. Ink cartridges were washed with 70% ethanol, and were filled with the respective solutions of the biologically active substances.
# Each polyolefin sheet was processed in advance to have minute holes at positions corresponding to the wells of a 96 well plate to allow gas exchange. A DMEM culture liquid containing FBS by 2% was put in wells of five 96-well transparent microplates. […] Then, in each well, cells of a mouse skeletal muscle cell strain C2C12 were added. Next, a transfer sheet carrying IGF-I was superimposed on each of the microplate and pressed from the above using the above jig so that each region of the sheet came in contact with the culture liquid in each well to gradually release IGF-I into the culture liquid, and cell culture was started. The above operations were carried out in the same manner with the five microplates. After a predetermined time from the start of the culture, the transfer sheet of one of the microplates was replaced by a transfer sheet carrying FGF-2 to dissolve FGF-2 into the culture liquid. After that the transfer sheet was replaced by the previous IGF-I sheet and the culture was continued. All the cells were cultured for 114 hours in total at 37° C., in humidified air containing 5% CO2. The FGF-2 addition was conducted at the following points:
# (1) immediately after the start of culture;
# (2) 12 hours after the start of culture;
# (3) 24 hours after the start of culture;
# (4) 48 hours after the start of culture;
# (5) 72 hours after the start of culture.
substance,measurement,setting,value
"EGF: epidermal cell growth factor, immobilized on the plate or dissolved from the sheet","effect on proliferation and differentiation (nuclei and cell morphology), immobilized state versus dissolved state",nerve cell strain PC12,affected the PC12 cells differently
IGF-I: insulin-like growth factor used as biologically active substance,differentiation into muscle cells (microscope observation),[1]; areas containing IGF-I,accelerated depending on the concentrations
same,muscle differentiation (CK relative activity),[2],accelerated
same,muscle differentiation (optical microscope),[3]; areas containing IGF-I,muscle differentiation
"b-FGF: Basic fibroblast cell growth factor, a cell growth factor used as biologically active substance",cell proliferation (microscope observation),[1]; areas containing b-FGF,accelerated depending on the concentrations
same,ALP staining (index for bone differentiation by BMP-2),[4]; FGF-2 added (1) immediately after the start of culture,stained portions were scarcely observed
same,ALP staining (index for bone differentiation by BMP-2),[4]; FGF-2 added (2) 12 hours after the start of culture,stained portions were scarcely observed
same,ALP staining (index for bone differentiation by BMP-2),[4]; FGF-2 added (3) 24 hours after the start of culture,portions stained with ALP were confirmed
same,ALP staining (index for bone differentiation by BMP-2),[4]; FGF-2 added (4) 48 hours after the start of culture,portions stained with ALP were confirmed
same,ALP staining (index for bone differentiation by BMP-2),[4]; FGF-2 added (5) 72 hours after the start of culture,portions stained with ALP were confirmed
same,bone differentiation from muscle cells into bone cells,[4]; adding FGF-2 within 24 hours after the start of the culture,significantly suppressed
same,cell proliferation (optical microscope),[3]; areas containing immobilized b-FGF,cell proliferation

# — US7960168B2, “Biologically active substance transfer sheet, cell culture kit constituted of cell culture plate and biologically active substance transfer sheet, producing method thereof and method for screening cell culture conditions utilizing the same” (Canon Kabushiki Kaisha, priority 2003, dated 2011)
